Structures can show the parent of a compound that is named as a salt. Where two headings read alike, the source gives them in different places.
System: compound-treated mice
Assay: Neuropharmacological assay (SmartCube): behavioral activity signature and minimal effective dose
Assay type: in vivo
Settings: for minimal effective dose: Mus musculus, ip; for AD: ADHD (probability of activity signature) / AG: analgesic (probability of activity signature) / AX: anxiolytic (probability of activity signature) / CE: cognitive enhancer (probability of activity signature) / DP: anti-depressant (probability of activity signature) / MS: mood stabilizer (probability of activity signature) / PS: anti-psychotic (probability of activity signature) / SD: sedative hypnotic (probability of activity signature) / UN: uncharacterized CNS activity (probability of activity signature): i.p. 15 min before test, most efficacious dose(s)
Outline: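 Mice dosed i.p. 15 min before test, compound in N-methyl-2-pyrrolidone/PEG/propylene glycol, 3 doses; video-captured behavior matched to reference-drug signatures, giving per-class probabilities at most efficacious dose. MED from doses typically 0.3–30 mpk, defined as lowest dose with ≥50% total activity.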

[1] = MED = dose having 50% or more total activity, read-out: Potency: minimal effective dose (MED), binned
[2] = MED = dose having 50% or more total activity, read-out: Potency: minimal effective dose (MED)

| SMILES | minimal effective dose [1] [mg/kg] | AD: ADHD (probability of activity signature) | AG: analgesic (probability of activity signature) | AX: anxiolytic (probability of activity signature) | CE: cognitive enhancer (probability of activity signature) | DP: anti-depressant (probability of activity signature) | MS: mood stabilizer (probability of activity signature) | PS: anti-psychotic (probability of activity signature) | SD: sedative hypnotic (probability of activity signature) | UN: uncharacterized CNS activity (probability of activity signature) | minimal effective dose [2] [mg/kg] | Potency: minimal effective dose (MED), binned (MED = dose having 50% or more total activity) |
| --- | --- | --- | --- | --- | --- | --- | --- | --- | --- | --- | --- | --- |
| CCCN[C@H]1COCc2ccccc21.Cl [Example 265] | 3 to 10 | + (LOQ ≤ + <5%) | + (LOQ ≤ + <5%) | + (LOQ ≤ + <5%) | + (LOQ ≤ + <5%) | ++ (5% ≤ ++ <25%) | + (LOQ ≤ + <5%) | + (LOQ ≤ + <5%) | ++ (5% ≤ ++ <25%) | + (LOQ ≤ + <5%) |  |  |
| Cc1cccc2c1[C@@H](N)COC2 (single isomer, unassigned) [Example 134] |  | + (LOQ ≤ + <5%) | ++ (5% ≤ ++ <25%) | +++ (25% ≤ +++ <50%) | ++ (5% ≤ ++ <25%) | ++ (5% ≤ ++ <25%) | + (LOQ ≤ + <5%) | ++ (5% ≤ ++ <25%) | ++ (5% ≤ ++ <25%) | +++ (25% ≤ +++ <50%) | 3 to 10 |  |
| Cc1cccc2c1C(N)CCOC2.Cl (stereo not drawn) [Example 39] |  | + (LOQ ≤ + <5%) | ++ (5% ≤ ++ <25%) | +++ (25% ≤ +++ <50%) | ++ (5% ≤ ++ <25%) | ++ (5% ≤ ++ <25%) | + (LOQ ≤ + <5%) | + (LOQ ≤ + <5%) | + (LOQ ≤ + <5%) | ++++ (50% ≤ ++++) | 3 to 10 |  |
| C[C@@H]1OC[C@@H](N)c2cc(F)ccc21.Cl [Example 206] | 3 to 10 | + (LOQ ≤ + <5%) | ++ (5% ≤ ++ <25%) | ++++ (50% ≤ ++++) | ++ (5% ≤ ++ <25%) | ++ (5% ≤ ++ <25%) | + (LOQ ≤ + <5%) | ++ (5% ≤ ++ <25%) | + (LOQ ≤ + <5%) | +++ (25% ≤ +++ <50%) |  |  |
| Cl.NC1COCc2ccccc21 (stereo not drawn) [Example 12] |  | + (LOQ ≤ + <5%) | ++ (5% ≤ ++ <25%) | ++ (5% ≤ ++ <25%) | ++ (5% ≤ ++ <25%) | ++ (5% ≤ ++ <25%) | + (LOQ ≤ + <5%) | ++ (5% ≤ ++ <25%) | + (LOQ ≤ + <5%) | +++ (25% ≤ +++ <50%) | 10 to 30 |  |
| CCCN[C@H]1c2ccccc2CO[C@H]1C.Cl [Example 272] | 3 to 10 | + (LOQ ≤ + <5%) | + (LOQ ≤ + <5%) | ++ (5% ≤ ++ <25%) | + (LOQ ≤ + <5%) | + (LOQ ≤ + <5%) | ++ (5% ≤ ++ <25%) | ++ (5% ≤ ++ <25%) | ++ (5% ≤ ++ <25%) | ++ (5% ≤ ++ <25%) |  |  |
| N[C@H]1COCc2ccccc21 (single isomer, unassigned) [Example 112] |  | + (LOQ ≤ + <5%) | ++ (5% ≤ ++ <25%) | ++ (5% ≤ ++ <25%) | +++ (25% ≤ +++ <50%) | ++ (5% ≤ ++ <25%) | + (LOQ ≤ + <5%) | ++ (5% ≤ ++ <25%) | + (LOQ ≤ + <5%) | + (LOQ ≤ + <5%) | 10 to 30 |  |
| Cl.NC1COCc2ccc3c(c21)C1CCC3C1 (single isomer, unassigned) [Example 161] |  | + (LOQ ≤ + <5%) | ++ (5% ≤ ++ <25%) | +++ (25% ≤ +++ <50%) | ++ (5% ≤ ++ <25%) | ++ (5% ≤ ++ <25%) | + (LOQ ≤ + <5%) | ++ (5% ≤ ++ <25%) | + (LOQ ≤ + <5%) | ++ (5% ≤ ++ <25%) |  | B (>3 to 10 mpk) |
| C[C@@H]1OC[C@@H](N(C)C)c2ccccc21 (stereo in doubt) [Example 239, cis-N,N,1-trimethylisochroman-4-amine hydrochloride] | 3 to 10 | ++ (5% ≤ ++ <25%) | ++ (5% ≤ ++ <25%) | ++ (5% ≤ ++ <25%) | ++ (5% ≤ ++ <25%) | ++ (5% ≤ ++ <25%) | + (LOQ ≤ + <5%) | ++ (5% ≤ ++ <25%) | + (LOQ ≤ + <5%) | +++ (25% ≤ +++ <50%) |  |  |
